From patent US10519169B2, “3-(1H-pyrrolo[2,3-C]pyridin-2-yl)-1 H-pyrazolo[4,3-B]pyridines and therapeutic uses thereof” (Samumed, LLC, priority 2015, dated 2019) come the findings set out here.

Holding throughout (assay type): cell-based
Assay [1] concerns primary human mesenchymal stem cells (hMSCs). Put plainly: Chondrogenesis induction in hMSCs (chondrogenic nodules). The following applies: 144 h, 6 days; for Emax: nodules, relative to TGF-β3 positive control (10 ng/mL), read-out: Max. Activity as % TGF-β3 activity; for EC50: concentration required to induce 50% levels of chondrogenesis vs TGF-β3, read-out: Conc (nM) of 50% TGF-β3 activity. Here is the method: Representative compounds were screened using primary human mesenchymal stem cells (hMSCs) to determine their ability to induce chondrogenesis (process by which cartilage is developed).
Primary human mesenchymal stem cells (hMSCs) were purchased from Lonza (Walkersville, Md.) and expanded in Mesenchymal Stem Cell Growth Media (Lonza). Cells between passage 3 and 6 were used for the experiments.
Each compound was dissolved in DMSO as a 10 mM stock and used to prepare compound source plates. Serial dilution (1:3, 6-point dose-response curves from 2700 nM to 10 nM) and compound transfer was performed using the ECHO 550 (Labcyte, Sunnyvale, Calif.) into 96-well clear bottom assay plates (Greiner Bio-One) with appropriate DMSO backfill for a final DMSO concentration of 0.03%. hMSCs were plated at 20,000 cells/well in 250 μL/well Incomplete Chondrogenic Induction Medium (Lonza; DMEM, dexamethasone, ascorbate, insulin-transferrin-selenium [ITS supplement], gentamycin-amphotericin [GA-1000], sodium pyruvate, proline and L-glutamine). TGF-03 (10 ng/mL) was used as a positive control for differentiation while negative control wells were treated with 75 nL DMSO for normalization and calculating EC50 values. Cells were incubated at 37° C. and 5% CO2 for 6 days. To image chondrogenic nodules, the cells were fixed using 4% formaldehyde (Electron Microscopy Sciences), and stained with 2 μg/mL Rhodamine B (Sigma-Aldrich) and 20 μM Nile Red (Sigma-Aldrich) [Johnson K., et. al, A Stem Cell-Based Approach to Cartilage Repair, Science, (2012), 336(6082), 717-721]. The nodules imaged (4 images per well at 4× magnification) by excitation at 531 nm and emission at 625 nm and quantified using the CellInsight CX5 (Thermo Scientific). Number of nodules in each well was normalized to the average of 3 DMSO treated wells on the same plate using Excel (Microsoft Inc.). The normalized averages (fold change over DMSO) of 3 replicate wells for each compound concentration were calculated. Due to solubility limitations of some of the compounds, curve fitting was incomplete leading to inaccurate EC50 determinations.
Using TGF-β3 as a positive control, the concentration of representative compounds required to induce 50% levels of chondrogenesis is reported. In addition, the maximum activity of each compound and the respective dose that each compound reached maximum chondrogenesis activity is reported.

Another assay has as its system SW480 colon cancer cells. Description: Cell viability assay (CellTiter-Blue), SW480 cells. The note with it: Homo sapiens; for pEC50: 96 h, four days, CellTiter-Blue; for inhibition at 10 µM: given for EC50 >10 μM, read-out: percent inhibition at 10 μM. Here is the method:
Representative compounds were screened using the following assay procedure to assess the effect on cell viability as described below.
Each compound was dissolved in DMSO as a 10 mM stock and used to prepare compound source plates. Serial dilution (1:3, 8-point dose-response curves from […]) and compound transfer was performed using the ECHO 550 (Labcyte, Sunnyvale, Calif.) into 96-well clear bottom, black-walled plates (Corning-Costar).
Approximately 2×10^3 SW480 colon cancer cells were seeded into each well and allowed to incubate in the presence or absence of compound for four days at 37° C./5% CO2. Eight replicates of DMSO-treated cells served as controls and cells treated with compound were performed in duplicate.
After incubation, 20 μL of CellTiter-Blue (Promega) was added to each well allowed to incubate for approximately 3 hours. This reagent was a buffered solution which contains resazurin, metabolically active cells were able to reduce rezarurin (blue) into resorufin (pink) which was highly fluorescent. This measured fluorescence was used as a readout for cell viability.
After incubation, the plates were read at Ex 560 nm Em 590 nm (Cytation 3, BioTek). Dose-response curves were generated and EC50 concentration values were calculated using non-linear regression curve fit in the GraphPad Prism (San Diego, Calif.) or Dotmatics' Studies Software (Bishops Stortford, UK). For EC50 of >10 μM, the percent inhibition at 10 μM is provided.
For orientation: Resazurin is reduced to fluorescent resorufin, in cell work by metabolically active cells.

A further assay deals with IL-6. Put plainly: IL-6 inhibition in LPS-stimulated THP-1 cells (HTRF). The note with it: Homo sapiens; for pEC50: LPS 500 ng/mL, 22 hours, IL6 HTRF; for inhibition at 10 µM: given for EC50 >10 μM, LPS, IL6, at 10 M [sic], read-out: percent inhibition at 10 M. Here is the method:
Human monocyte cell line (THP-1 cells; Catalog # TIB-202, ATCC, Manassas, Va.) were cultured in Roswell Park Memorial Institute (RPMI) 1640 Medium (Catalog #21870-100, Buffalo, N.Y.) with 1% L-glutamine, 1% HEPES, 1% Sodium Pyruvate, 2% Sodium Bicarbonate supplemented with 100 units/mL penicillin, 50 μg/mL streptomycin, 2-mercaptoethanol (0.05 mM) [basal medium] and 10% fetal bovine serum (Catalog #16140089, Life Technologies, Carlsbad, Calif.) at 37° C. and 5% CO2.
THP-1 cells were cultured in basal media with 1% FBS for 24 hours before the start of the assay. Each compound was dissolved in DMSO as a 10 mM stock and used to prepare compound source plates. Serial dilution (1:3, 10-point dose-response curves starting from 10 μM) and compound transfer was performed using the ECHO 550 (Labcyte, Sunnyvale, Calif.) into 384-well white low volume assay plates (Greiner Bio-One) with appropriate DMSO backfill for a final DMSO concentration of 0.1%. THP-1 cells were plated at 5000 cells/well in the 384-well plates and incubated at 37° C. for 2 h. 500 ng/mL of LPS was added after 2 hours and cells were incubated for another 22 hours at 37° C. Plates were spun in a centrifuge for 1 minute at […] and a mixture of anti-IL6 XL665, and anti-IL6 Cryptate diluted in reconstitution buffer (Cisbio Inc.) was added to each well. Following incubation for 3 hrs at room temperature, Homogeneous Time-Resolved Fluorescence (HTRF) was measured using the Envision (Perkin Elmer) at 665 nm and […]. The ratio of fluorescence at 665 nm to 620 nm was used as a readout for IL6 quantification. All samples were processed in duplicate. Readings were normalized to DMSO treated cells and normalized activities were utilized for EC50 calculations using the dose-response log (inhibitor) vs. response-variable slope (four parameters) nonlinear regression feature available in GraphPad Prism 5.0 (or Dotmatics). For EC50 of >10 μM, the percent inhibition at […] is provided.

Structures are written as SMILES. pEC50: −log10 of the molar value.

With `Fc1ccccc1-c1cncc2[nH]c(-c3n[nH]c4ccc(-c5cn[nH]c5)nc34)cc12` [Compound 539, 3-(4-(2-Fluorophenyl)-1H-pyrrolo[2,3-c]pyridin-2-yl)-5-(1H-pyrazol-4-yl)-1H-pyrazolo[4,3-b]pyridine], in assay [1], the Emax amounted to 40%. Also, the pEC50 is 5.54 with SW480 colon cancer cells and 6.80 with IL-6.

In the case of `Fc1cccc(-c2cncc3[nH]c(-c4n[nH]c5ccc(-c6cccnc6)nc45)cc23)c1` [Compound 4, 3-(4-(3-Fluorophenyl)-1H-pyrrolo[2,3-c]pyridin-2-yl)-5-(pyridin-3-yl)-1H-pyrazolo[4,3-b]pyridine], the EC50 in assay [1] came out at 30 nM. Further, the Emax in assay [1] was 92%. For the same molecule, the results for the pEC50 in the assay with SW480 colon cancer cells and in the assay on IL-6 were 6.32 and 6.58, respectively.

For `Fc1cccc(-c2cncc3[nH]c(-c4n[nH]c5ccc(C6CCNCC6)nc45)cc23)c1` [Compound 505, 3-(4-(3-Fluorophenyl)-1H-pyrrolo[2,3-c]pyridin-2-yl)-5-(piperidin-4-yl)-1H-pyrazolo[4,3-b]pyridine], in assay [1], the EC50 was 2700 nM and the Emax is 103%. Further, in the assay on SW480 colon cancer cells, the pEC50 was below 5.00 and the inhibition at 10 µM is 26%. The same molecule gave a pEC50 in the assay with IL-6 of 5.96.

`CN(C)c1cncc(-c2ccc3[nH]nc(-c4cc5c(-c6cccc(F)c6)cncc5[nH]4)c3n2)c1` [Compound 7, 5-(3-(4-(3-Fluorophenyl)-1H-pyrrolo[2,3-c]pyridin-2-yl)-1H-pyrazolo[4,3-b]pyridin-5-yl)-N,N-dimethylpyridin-3-amine]: in assay [1], the EC50 worked out at 100 nM and the Emax was 85%. This molecule also had a negative logarithm of the EC50 (pEC50) in the assay with SW480 colon cancer cells of 6.45. Also, in the assay with IL-6, the pEC50 is 7.42.

For the molecule `Nc1cncc(-c2ccc3[nH]nc(-c4cc5c(-c6ccncc6)cncc5[nH]4)c3n2)c1` [Compound 115, 5-(3-(4-(Pyridin-4-yl)-1H-pyrrolo[2,3-c]pyridin-2-yl)-1H-pyrazolo[4,3-b]pyridin-5-yl)pyridin-3-amine], in assay [1], the EC50 is 30 nM and the Emax was 53%. Also, in the assay on SW480 colon cancer cells, the pEC50 was below 5.00 and the inhibition at 10 µM is 7.6%. Also, the pEC50 in the assay with IL-6 was 5.99.

In the case of `CS(=O)(=O)NCc1cc(F)cc(-c2cncc3[nH]c(-c4n[nH]c5ccc(-c6cncc(CN7CCCCC7)c6)nc45)cc23)c1` [Compound 491, N-(3-Fluoro-5-(2-(5-(5-(piperidin-1-ylmethyl)pyridin-3-yl)-1H-pyrazolo[4,3-b]pyridin-3-yl)-1H-pyrrolo[2,3-c]pyridin-4-yl)benzyl)methanesulfonamide], in assay [1], the EC50 was determined as 10 nM and the Emax is 83%. Besides, the pEC50 in the assay on SW480 colon cancer cells was 5.71. Further, the pEC50 in the assay with IL-6 was 6.67.

`Cc1ccncc1-c1ccc2[nH]nc(-c3cc4c(-c5cc(F)cc(CNS(C)(=O)=O)c5)cncc4[nH]3)c2n1` [Compound 481, N-(3-Fluoro-5-(2-(5-(4-methylpyridin-3-yl)-1H-pyrazolo[4,3-b]pyridin-3-yl)-1H-pyrrolo[2,3-c]pyridin-4-yl)benzyl)methanesulfonamide]: in assay [1], the EC50 was determined as 10 nM and the Emax is 87%. Besides, the pEC50 with SW480 colon cancer cells was 5.56. In the assay on IL-6, this molecule had a pEC50 of 6.94.

For the molecule `Cn1cc(-c2ccc3[nH]nc(-c4cc5c(-c6cccnc6)cncc5[nH]4)c3n2)cn1` [Compound 556, 5-(1-Methyl-1H-pyrazol-4-yl)-3-(4-(pyridin-3-yl)-1H-pyrrolo[2,3-c]pyridin-2-yl)-1H-pyrazolo[4,3-b]pyridine], in assay [1], the EC50 stood at 10 nM and the Emax came out at 52%. The molecule further showed a pEC50 in the assay with SW480 colon cancer cells of 5.39. For the same molecule, in the assay on IL-6, the pEC50 was 5.43.

As for `c1ccc(-c2ccc3[nH]nc(-c4cc5ccncc5[nH]4)c3n2)nc1` [Compound 280, 5-(Pyridin-2-yl)-3-(1H-pyrrolo[2,3-c]pyridin-2-yl)-1H-pyrazolo[4,3-b]pyridine], in the assay on SW480 colon cancer cells, the pEC50 was below 5.00 and the inhibition at 10 µM is 3.3%. In the assay on IL-6, the pEC50 was below 5.00 and the inhibition at 10 µM was 47.2%.

On to `O=C(Cc1ccccc1)Nc1cncc(-c2ccc3[nH]nc(-c4cc5c(-c6ccoc6)cncc5[nH]4)c3n2)c1` [Compound 318, N-(5-(3-(4-(Furan-3-yl)-1H-pyrrolo[2,3-c]pyridin-2-yl)-1H-pyrazolo[4,3-b]pyridin-5-yl)pyridin-3-yl)-2-phenylacetamide], for which, in the assay on SW480 colon cancer cells, the pEC50 is below 5.00 and the inhibition at 10 µM is 23.8%. Moreover, in the assay with IL-6, the pEC50 is below 5.00 and the inhibition at 10 µM was found to be 30.9%.

Regarding `O=C(Nc1cncc(-c2ccc3[nH]nc(-c4cc5c(-c6ccc(F)cc6)cncc5[nH]4)c3n2)c1)c1ccccc1` [Compound 39, N-(5-(3-(4-(4-Fluorophenyl)-1H-pyrrolo[2,3-c]pyridin-2-yl)-1H-pyrazolo [4,3-b]pyridin-5-yl)pyridin-3-yl)benzamide], the pEC50 with SW480 colon cancer cells was 5.64. Besides, in the assay on IL-6, the pEC50 is below 5.00 and the inhibition at 10 µM was found to be 33.1%.

Take `c1cc(-c2cncc3[nH]c(-c4n[nH]c5ccc(-c6cncc(OCCN7CCCC7)c6)nc45)cc23)co1` [Compound 690, 3-(4-(Furan-3-yl)-1H-pyrrolo[2,3-c]pyridin-2-yl)-5-(5-(2-(pyrrolidin-1-yl)ethoxy)pyridin-3-yl)-1H-pyrazolo[4,3-b]pyridine]: in the assay on SW480 colon cancer cells, the pEC50 was below 5.00 and the inhibition at 10 µM is 0%. In the assay on IL-6, the pEC50 is below 5.00 and the inhibition at 10 µM was 9.7%.

Consider `Cc1ncc(-c2ccc3[nH]nc(-c4cc5c(-c6ccncc6)cncc5[nH]4)c3n2)n1C` [Compound 573, 5-(1,2-Dimethyl-1H-imidazol-5-yl)-3-(4-(pyridin-4-yl)-1H-pyrrolo[2,3-c]pyridin-2-yl)-1H-pyrazolo[4,3-b]pyridine], for which, in the assay on SW480 colon cancer cells, the pEC50 is below 5.00 and the inhibition at 10 µM worked out at 5.3%. Further, in the assay with IL-6, the pEC50 was below 5.00 and the inhibition at 10 µM turned out to be 0%.

One may read the pEC50 as the EC50 on a negative log10 scale, so that one unit is a factor of ten. Lower therefore signals a high EC50. Usually inhibition stands for the percentage by which the read-out fell short of the control.
